Test results: ChEMBL document CHEMBL1142168, “Prevalence and susceptibility testing of new species of pseudallescheria and scedosporium in a collection of clinical mold isolates” (2007)
In brackets after ≈: the same amount, converted by molar mass.

Tests used:
Scedosporium aurantiacum [1] = assay: Antifungal activity against Scedosporium aurantiacum corneal isolate CNM-CM-2923 at 48 hrs; assay type: functional; conditions: Cornea
[2] = Antifungal activity against Scedosporium aurantiacum bronchial aspirate isolate CNM-CM-4183 at 48 hrs; assay type: functional
Scedosporium aurantiacum [3] = assay: Antifungal activity against Scedosporium aurantiacum ear swab isolate CNM-CM-2846 at 48 hrs; assay type: functional
[4] = Antifungal activity against Scedosporium aurantiacum sputum isolate CNM-CM-2631 at 48 hrs; assay type: functional
Scedosporium apiospermum = assay: Antifungal activity against Scedosporium apiospermum isolates at 48 hrs

## C[C@@H](c1ncncc1F)[C@](O)(Cn1cncn1)c1ccc(F)cc1F [VORICONAZOLE]
Scedosporium aurantiacum [1]
  MIC: 16 µg/mL (≈ 45.8 µM)
[2]
  MIC: 0.5 µg/mL (≈ 1.43 µM)
Scedosporium aurantiacum [3]
  MIC: 1 µg/mL (≈ 2.86 µM)
[4]
  MIC: 0.5 µg/mL (≈ 1.43 µM)
Scedosporium apiospermum
  MIC: 0.125 µg/mL (≈ 0.358 µM)

## CCC(C)n1ncn(-c2ccc(N3CCN(c4ccc(OCC5COC(Cn6cncn6)(c6ccc(Cl)cc6Cl)O5)cc4)CC3)cc2)c1=O (stereo not given) [ITRACONAZOLE]
Scedosporium aurantiacum [1]
  MIC: 16 µg/mL (≈ 22.7 µM)
[2]
  MIC: 16 µg/mL (≈ 22.7 µM)
Scedosporium aurantiacum [3]
  MIC: 8 µg/mL (≈ 11.3 µM)
[4]
  MIC: 2 µg/mL (≈ 2.83 µM)
Scedosporium apiospermum
  MIC: 0.25 µg/mL (≈ 0.354 µM)

## C[C@@H]1[C@H](O)[C@@H](C)/C=C/C=C/C=C/C=C/C=C/C=C/C=C/[C@H](O[C@@H]2O[C@H](C)[C@@H](O)[C@H](N)[C@@H]2O)C[C@@H]2O[C@](O)(C[C@@H](O)C[C@@H](O)[C@H](O)CC[C@@H](O)C[C@@H](O)CC(=O)O[C@H]1C)C[C@H](O)[C@H]2C(=O)O [AMPHOTERICIN B]
Scedosporium aurantiacum [1]
  MIC: 8 µg/mL (≈ 8.66 µM)
[2]
  MIC: 8 µg/mL (≈ 8.66 µM)
Scedosporium aurantiacum [3]
  MIC: 16 µg/mL (≈ 17.3 µM)
[4]
  MIC: 4 µg/mL (≈ 4.33 µM)
Scedosporium apiospermum
  MIC: 0.25 µg/mL (≈ 0.271 µM)
